Test results taken from patent US8946438B2, “Benzamides, production thereof, and use thereof as medicaments” (Boehringer Ingelheim International GmbH, priority 2008, dated 2015).

Each compound was assayed against p38 MAP-kinase (Homo sapiens, UniProt Q16539) (assay: Enzymatic assay: inhibition of p38 MAP-kinase (phosphorylation of GST-tagged ATF2, chemoluminescence bead readout)). Conditions: inhibitor 1 μM; activated p38 MAP-kinase 1 nM; 4 h preincubation; ATP 100 μM; ATF2 10 nM.
Chain of p38 MAP-kinase (Q16539 whole entry): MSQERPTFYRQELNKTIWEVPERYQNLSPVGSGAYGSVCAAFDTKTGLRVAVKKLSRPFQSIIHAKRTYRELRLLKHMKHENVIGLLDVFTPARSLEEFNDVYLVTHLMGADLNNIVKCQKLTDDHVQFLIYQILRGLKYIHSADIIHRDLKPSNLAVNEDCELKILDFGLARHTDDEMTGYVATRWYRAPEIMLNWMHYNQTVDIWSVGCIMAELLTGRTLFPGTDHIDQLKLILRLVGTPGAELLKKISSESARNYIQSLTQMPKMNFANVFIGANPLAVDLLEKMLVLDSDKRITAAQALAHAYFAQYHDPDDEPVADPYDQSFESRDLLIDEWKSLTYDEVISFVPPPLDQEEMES
Format: biochemical
Experimental: In this, the amount of a substrate phosphorylated by the kinase is quantified. The test is carried out as follows:
The kinase reaction is carried out in the presence of HEPES (20 mM, pH 7), MgCl2 (10 mM), DTT (1 mM) and TWEEN20 (0.01%). First, dimethylsulphoxide or inhibitor (final concentration: 1 μM) dissolved in dimethylsulphoxide are placed in a reaction vessel. Then the activated p38 MAP-kinase (final concentration 1 nM) is added and the mixture is incubated for 4 h at ambient temperature. Then a mixture of substrate (GST-tagged ATF2) and ATP is added and everything is incubated together for a further hour (final concentration ATP: 100 μM; final concentration ATF2: 10 nM).
The concentration of phosphorylated ATF2 is quantified by chemoluminescence-induced light emission. For this, a glutathione donor bead (final concentration: 5 μg/ml) which binds to the gluthathione on the ATF2 and phospho-ATF2 antibodies are added to the reaction mixture (final concentration: 3 nM; this binds the phosphate group added by the kinase reaction) to which a Protein A Acceptor Bead (final concentration: 5 μg/ml) binds. These components are dissolved in a buffer which contains 20 mM HEPES pH 7.0, 200 mM NaCL, 80 mM EDTA as well as 0.3% BSA. This reaction mixture is incubated in the dark for 1 hour at ambient temperature. When these beads come physically close, visible light is emitted which is measured in a photometer at 520-620 nm.
To determine the inhibitory activity of the compounds according to the invention a calculation is made to determine the percentage by which the kinase activity is inhibited at a fixed inhibitor concentration of 1 μM. The maximum activity is determined by non-inhibited kinase. The minimum activity or nonspecific background activity is determined using a reaction mixture without kinase. […] Table 2 summarises the degree of inhibition of the enzyme p38 MAP-kinase—as described hereinbefore—of the compounds according to the invention detailed in the section “Preparation of the final compounds”.
`COc1c(NC(=O)c2ccc(C)c(Oc3ccnc(N(C)C4CCNCC4)n3)c2)cc(C(C)(C)C)cc1NS(C)(=O)=O` [5(25), N-(5-tert-butyl-3-methanesulphonylamino-2-methoxy-phenyl)-4-methyl-3-[2-(methyl-piperidin-4-yl-amino)-pyrimidin-4-yloxy]-benzamide] was tested, and the “% inhibitory effect at 1 μM” value was 97.6%.

Same assay, conditions: inhibitor 1 μM; activated p38 MAP-kinase 1 nM; 4 h preincubation; ATP 100 μM; ATF2 10 nM; read-out: % inhibitory effect at 1 μM
`COc1c(NC(=O)c2ccc(C)c(Oc3ccnc(CC4CCNCC4)c3)c2)cc(C(C)(C)C)cc1NS(C)(=O)=O` [5(20), N-(5-tert-butyl-3-methanesulphonylamino-2-methoxy-phenyl)-4-methyl-3-(2-piperidin-4-ylmethyl-pyridin-4-yloxy)-benzamide] showed an inhibition at 1 µM of 99.5%.
`CNc1nccc(Oc2cc(C(=O)Nc3cc(C(C)(C)C)cc(NS(C)(=O)=O)c3OC)ccc2C)n1` [Example 3, N-(5-tert-butyl-3-methanesulphonylamino-2-methoxy-phenyl)-4-methyl-3-(2-methylamino-pyrimidin-4-yloxy)-benzamide] showed an inhibition at 1 µM of 98.1%.
In the case of `COc1c(NC(=O)c2ccc(C)c(Oc3ccnc(N[C@H]4CC[C@H](N(C)C)CC4)n3)c2)cc(C(C)(C)C)cc1NS(C)(=O)=O` [4(18), N-(5-tert-butyl-3-methanesulphonylamino-2-methoxy-phenyl)-3-[2-(trans-4-dimethylamino-cyclohexylamino)-pyrimidin-4-yloxy]-4-methyl-benzamide], the inhibition at 1 µM was 99%.
`COc1c(NC(=O)c2ccc(C)c(Oc3ccnc(CN4CCOCC4)c3)c2)cc(C(C)(C)C)cc1NS(C)(=O)=O` [8(9), N-(5-tert-butyl-3-methanesulphonylamino-2-methoxy-phenyl)-4-methyl-3-(2-morpholin-4-ylmethyl-pyridin-4-yloxy)-benzamide] was tested, and the inhibition at 1 µM was 98.4%.
Compound `COc1c(NC(=O)c2ccc(C)c(Oc3ccnc(CC4CCCN(C)CC4)c3)c2)cc(C(C)(C)C)cc1NS(C)(=O)=O` (stereo not drawn) [Example 12, N-(5-tert-butyl-3-methanesulphonylamino-2-methoxy-phenyl)-4-methyl-3-[2-(1-methyl-azepan-4-ylmethyl)-pyridin-4-yloxy]-benzamide] has an inhibition at 1 µM of 97.5%.
`COc1c(NC(=O)c2ccc(Cl)c(Oc3ccnc(CC4CCN(C)CC4)c3)c2)cc(C(C)(C)C)cc1NS(C)(=O)=O` [12(5), N-(5-tert-butyl-3-methanesulphonylamino-2-methoxy-phenyl)-4-chloro-3-[2-(1-methyl-piperidin-4-ylmethyl)-pyridin-4-yloxy]-benzamide] showed an inhibition at 1 µM of 99.5%.
For `COc1c(NC(=O)c2ccc(Cl)c(Oc3ccnc(NC4CCNCC4)n3)c2)cc(C(C)(C)C)cc1NS(C)(=O)=O` [5(28), N-(5-tert-butyl-3-methanesulphonylamino-2-methoxy-phenyl)-4-chloro-3-[2-(piperidin-4-ylamino)-pyrimidin-4-yloxy]-benzamide], the inhibition at 1 µM was 99%.
For `COc1c(NC(=O)c2ccc(C)c(Oc3ccnc(CN[C@@H]4CCOC4)c3)c2)cc(C(C)(C)C)cc1NS(C)(=O)=O` [8(15), (R)-N-(5-tert-butyl-3-methanesulphonylamino-2-methoxy-phenyl)-4-methyl-3-{2-[(tetrahydro-furan-3-ylamino)-methyl]-pyridin-4-yloxy}-benzamide], the inhibition at 1 µM was 95.9%.
For `COc1c(NC(=O)c2ccc(C)c(Oc3ccnc(N4CC[C@H](N(C)C)C4)n3)c2)cc(C(C)(C)C)cc1NS(C)(=O)=O` [4(7), (S)-N-(5-tert-butyl-3-methanesulphonylamino-2-methoxy-phenyl)-3-[2-(3-dimethylamino-pyrrolidin-1-yl)-pyrimidin-4-yloxy]-4-methyl-benzamide], the inhibition at 1 µM was 98.6%.
Compound `COc1c(NC(=O)c2ccc(C)c(Oc3cc(CNCCN(C)C)ncn3)c2)cc(C(C)(C)C)cc1NS(C)(=O)=O` [8(29), N-(5-tert-butyl-3-methanesulphonylamino-2-methoxy-phenyl)-3-{6-[(2-dimethylamino-ethylamino)-methyl]-pyrimidin-4-yloxy}-4-methyl-benzamide] has an inhibition at 1 µM of 89%.
`COc1c(NC(=O)c2ccc(Cl)c(Oc3ccnc(CC4CCN(C)CC4)n3)c2)cc(C(C)(C)C)cc1NS(C)(=O)=O` [12(3), N-(5-tert-butyl-3-methanesulphonylamino-2-methoxy-phenyl)-4-chloro-3-[2-(1-methyl-piperidin-4-ylmethyl)-pyrimidin-4-yloxy]-benzamide] gave an inhibition at 1 µM of 99.6%.
Work on `COc1c(NC(=O)c2ccc(Cl)c(Oc3cc(CN4CCN(C)CC4)ncn3)c2)cc(C(C)(C)C)cc1NS(C)(=O)=O` [12(1), N-(5-tert-butyl-3-methanesulphonylamino-2-methoxy-phenyl)-4-chloro-3-[6-(4-methyl-piperazin-1-ylmethyl)-pyrimidin-4-yloxy]-benzamide] yielded an inhibition at 1 µM of 99.4%.
With `COc1c(NC(=O)c2ccc(C)c(Oc3ccnc(CN4CCN(C)CC4)c3)c2)cc(C(C)(C)C)cc1NS(C)(=O)=O` [8(10), N-(5-tert-butyl-3-methanesulphonylamino-2-methoxy-phenyl)-4-methyl-3-[2-(4-methyl-piperazin-1-ylmethyl)-pyridin-4-yloxy]-benzamide] the inhibition at 1 µM was 98.9%.
`COc1c(NC(=O)c2ccc(C)c(Oc3ccnc(CN4CCN(C)CC4)n3)c2)cc(C(C)(C)C)cc1[S+](C)[O-]` (stereo not drawn) [13(1), N-(5-tert-butyl-3-methanesulphinyl-2-methoxy-phenyl)-4-methyl-3-[2-(4-methyl-piperazin-1-ylmethyl)-pyrimidin-4-yloxy]-benzamide] was tested, and the inhibition at 1 µM was 97%.
Compound `COc1c(NC(=O)c2ccc(C)c(Oc3ccncc3)c2)cc(C(C)(C)C)cc1NS(C)(=O)=O` [Example 2, N-(5-tert-butyl-3-methanesulphonylamino-2-methoxy-phenyl)-4-methyl-3-(pyridin-4-yloxy)-benzamide] has an inhibition at 1 µM of 97.7%.
Work on `COc1c(NC(=O)c2ccc(C)c(Oc3cc(CC4CCN(C)CC4)ncn3)c2)cc(C(C)(C)C)cc1NS(C)(=O)=O` [Example 9, N-(5-tert-butyl-3-methanesulphonylamino-2-methoxy-phenyl)-4-methyl-3-[6-(1-methyl-piperidin-4-ylmethyl)-pyrimidin-4-yloxy]-benzamide] yielded an inhibition at 1 µM of 98.4%.
In the case of `COc1c(NC(=O)c2cc(Cl)c(C)c(Oc3ccnc(CN4CCN(C)CC4)n3)c2)cc(C(C)(C)C)cc1NS(C)(=O)=O` [7(5), N-(5-tert-butyl-3-methanesulphonylamino-2-methoxy-phenyl)-3-chloro-4-methyl-5-[2-(4-methyl-piperazin-1-ylmethyl)-pyrimidin-4-yloxy]-benzamide], the inhibition at 1 µM was 98.5%.
For `COc1c(NC(=O)c2ccc(C)c(Oc3cc(N4CCC(N(C)C)CC4)ncn3)c2)cc(C(C)(C)C)cc1NS(C)(=O)=O` [4(11), N-(5-tert-butyl-3-methanesulphonylamino-2-methoxy-phenyl)-3-[6-(4-dimethylamino-piperidin-1-yl)-pyrimidin-4-yloxy]-4-methyl-benzamide], the inhibition at 1 µM was 99.1%.
Work on `COc1c(NC(=O)c2ccc(C)c(Oc3ccnc(CC4CCNCC4)n3)c2)cc(C(C)(C)C)cc1S(C)(=O)=O` [5(38), N-(5-tert-butyl-3-methanesulphonyl-2-methoxy-phenyl)-4-methyl-3-(2-piperidin-4-ylmethyl-pyrimidin-4-yloxy)-benzamide] yielded an inhibition at 1 µM of 98.8%.
For `COc1c(NC(=O)c2ccc(C)c(Oc3ccnc(CC4CCN(C)CC4)n3)c2)cc(C(C)(C)C)cc1NS(C)(=O)=O` [9(1), N-(5-tert-butyl-3-methanesulphonylamino-2-methoxy-phenyl)-4-methyl-3-[2-(1-methyl-piperidin-4-ylmethyl)-pyrimidin-4-yloxy]-benzamide], the inhibition at 1 µM was 99.9%.
With `COc1c(NC(=O)c2cc(C)cc(Oc3ccnc(CN4CCN(C)CC4)n3)c2)cc(C(C)(C)C)cc1NS(C)(=O)=O` [8(28), N-(5-tert-butyl-3-methanesulphonylamino-2-methoxy-phenyl)-3-methyl-5-[2-(4-methyl-piperazin-1-ylmethyl)-pyrimidin-4-yloxy]-benzamide] the inhibition at 1 µM was 81.8%.
`COc1c(NC(=O)c2ccc(Cl)c(Oc3cc(C(=O)N4CCNCC4)ncn3)c2)cc(C(C)(C)C)cc1NS(C)(=O)=O` [5(3), N-(5-tert-butyl-3-methanesulphonylamino-2-methoxy-phenyl)-4-chloro-3-[6-(piperazine-1-carbonyl)-pyrimidin-4-yloxy]-benzamide] gave an inhibition at 1 µM of 95%.
In the case of `COc1c(NC(=O)c2ccc(C)c(Oc3ccnc(N(C)C4CCN(C)CC4)n3)c2)cc(C(C)(C)C)cc1NS(C)(=O)=O` [4(16), N-(5-tert-butyl-3-methanesulphonylamino-2-methoxy-phenyl)-4-methyl-3-{2-[methyl-(1-methyl-piperidin-4-yl)-amino]-pyrimidin-4-yloxy}-benzamide], the inhibition at 1 µM was 99.4%.
